Entries after “also recorded” stand apart in the source; their conditions may differ.
Tests used:
[1] = system: CD34^+ cells from healthy donors; experiment: CFU assay (E-CFU, GM-CFU) of human CD34+ cells in Methocult; type: cell-based; settings: for effect of pathway inhibitor on CFU increase elicited by AVP: 10^−8 M AVP; for effect of pathway inhibitor on CFU increase elicited by AVPR1B agonist: 10^−8 M AVPR1B agonist; for effect of pathway inhibitor on GM-CFU increase induced by OXT: 10^−8 M OXT
Procedure: CD34^+ cells from healthy donors were plated into semi-solid methylcellulose medium (Methocult) containing hematopoietic factors (GM-CSF 5 ng/ml, IL-3 5 ng/ml, SCF 50 ng/ml, EPO 2.5 U/ml).
The number of erythroid colony forming units (E-CFU) and granulocyte-macrophage colony forming units (GM-CFU) were determined based on morphological criteria on 7th and 14th days in culture.

human CD34^+ cells = experiment: BrdU cell proliferation assay, human CD34+ cells; type: cell-based
Procedure: (§1) Sorted mouse bone marrow LSK cells (10000 cells/well) were plated in a 96 well plate in Stemspan serum free expansion medium ([…] Technologies, Vancouver, Canada) with Pen/Strep, and the following hematopoietic factors: 100 ng/ml TPO, 50 ng/ml FLT3L, 50 ng/ml IL-3 and SCF 100 ng/ml (Peprotech, Rocky Hill, N.J.). Cells were treated with […] (Sigma-Aldrich, St. Louis, Mo.). When using human CD34^+ cells (5000 cells/well), human SCF, TPO, FLT3L and G-CSF (Peprotech, each at 50-100 ng/ml) were added to the Stemspan medium. Cells were treated with 10^−8M-10^−14M AVP. After 24 hours, BrdU at a 1:1000 concentration was added to the cultures and incorporation of BrdU was measured using the Cell Proliferation ELISA BrdU kit (Roche, Mannheim, Germany) after another 24 hours of incubation.

[2] = system: human CD34+ hematopoietic progenitors; experiment: Intracellular Ca2+ measurement in Fura-2 loaded human CD34+ hematopoietic progenitors; type: cell-based; settings: human CD34+ cells; for intracellular calcium levels: agonist stimulation
Procedure: Human BMSCs were loaded with Fura-2 and the cells were stimulated with AVP, or OXT. Intracellular Ca^2+ concentration was assayed as described before (Ely, J. A. et al. J Biol Chem 266, 18635-18641 (1991). To study their response to AVP and specific AVP receptor agonists and antagonists human CD34+ hematopoietic progenitors were Fura-2 loaded and Cytoplasmic Ca2+ measurements were performed in cells kept in suspension using a fluorescence spectrophotometer (Deltascan, Photon Technology International). Ratiometric measurements were recorded at 340/380 nm excitation and 500 nm emission and the ratios were plotted against time. Ionomycin (10 μM) was added at the end of each run to determine the maximum fluorescence ratio.

Human BMSCs = experiment: BMSC signalling (ERK phosphorylation, cAMP, intracellular Ca2+); type: cell-based; settings: BMSC cultures
Procedure: For cAMP quantitation, 8×10^5 per well human BMSCs were plated in 6 well plates and left to attach overnight. Next day, the medium was changed and the cells were stimulated with AVP or deamino-Cys^1, D-Arg^8 AVP (DDAVP, a V2 receptor agonist) at 10^−6 M for 4 minutes. Cells were washed with PBS and lysed with R&D cell lysis buffer. Cyclic AMP was measured with the R&D cAMP Parameter assay kit (R&D Systems, Minneapolis, Minn.) according to manufacturer's instructions. Total protein concentrations of the cell lysates were measured using the Micro BCA Protein Assay kit (Pierce, Rockford, Ill.) and cAMP amount was normalized to 100 μg of total protein.

[3] = system: mouse bone marrow LSK cells; experiment: BrdU cell proliferation assay, sorted mouse bone marrow LSK cells; type: cell-based; settings: 10^−8M-10^−14M, 2 days culture
Procedure: as §1

C57BL6 male mice = experiment: Hemorrhage anemia model, Alzet pump delivery; type: in vivo, mouse; settings: hemorrhage, FIG. 9D
Procedure: Mice were anesthetized with isoflurane. Twenty five percent of their calculated circulating blood volume (calculated based on Animal Research Advisory Committee Guidelines for survival bleeding of mice and rats, OACU, NIH) was drained from the retro-orbital plexus.
The reticulocyte ratio of peripheral blood was determined using the Retic-Count flow kit (BD Biosciences) according to the manufacturer's instructions. Hematocrit values were measured with an automated analyzer and microhematocrit tubes. The reticulocyte index was calculated as follows: reticulocyte ratio %/total gated cells×hematocrit/45.
To infuse vasopressin into the mice, AVP filled ALZET pumps were implanted subcutaneously on the dorsal aspect of the neck (5 ug/day, Alzet 1007D—7 days, 2002-14 days). Vasopressin was also given immediately and 6 hours later as a bolus injection (100 μg/kg). Alzet pumps were inserted subcutaneously. The dimensions and pump specification are: ALZET, (DURECT Corporation, Cupertino, Calif., USA) mini-osmotic pump models 1007D or 2002. The pumps deliver 0.5 μl/h of the desired substance for a for 2-week period. In some cases, erythropoietin antibody (100 μg/mice) was given before anesthesia with the corresponding control antibody. […] Following the initial hemorrhage blood samples were taken at 2, 4 and in some cases 6 days later to determine hematocrit and corrected reticulocyte values.

[4] = per 1000 plated CD34+ cells, 10^−8 M

Molecule: 1L-6-hydroxymethyl-chiro-inositol 2-(R)-2-O-methyl-3-O-octadecylcarbonate [HIMO]
- effect of pathway inhibitor on CFU increase elicited by AVP ([1]; Dkk1 200 ng/ml, HIMO 10^−8 M): had no effect
- effect of pathway inhibitor on CFU increase elicited by AVPR1B agonist ([1]; Dkk1 200 ng/ml, HIMO 10^−8 M): had no effect
- effect of pathway inhibitor on GM-CFU increase induced by OXT ([1]; Dkk1 200 ng/ml, HIMO 10^−8 M): did block
- GM-CFU numbers, inhibitor on its own ([1]; Dkk1 200 ng/ml, HIMO 10^−8 M): Neither Dkk1 nor HIMO affected GM-CFU numbers on their own

Molecule: COc1ccc(S(=O)(=O)N2C(=O)[C@@](c3ccccc3OC)(N3C[C@H](O)C[C@H]3C(=O)N(C)C)c3cc(Cl)ccc32)c(OC)c1 [AVPR1B antagonist, SSR 149415 - Nelivaptan]
- block of AVP / AVPR1B agonist induced proliferation of human HSPCs (human CD34^+ cells; antagonist): blocked; also recorded: both effects were seen
- block of the AVP-induced increase in calcium ([2]; antagonist): could be blocked

Molecule: NC(=O)CC[C@@H]1NC(=O)[C@H](Cc2ccccc2)NC(=O)[C@H](Cc2ccc(O)cc2)NC(=O)CCSSC[C@@H](C(=O)N2CCC[C@H]2C(=O)N[C@H](CCCN=C(N)N)C(=O)NCC(N)=O)NC(=O)[C@H](CC(N)=O)NC1=O [AVPR2 agonist, deamino-Cys^1, D-Arg^8 AVP]
- cyclic AMP (Human BMSCs; 10^−6 M for 4 minutes): increase in cyclic AMP

Molecule: CC[C@H](C)[C@@H]1NC(=O)[C@H](Cc2ccc(O)cc2)NC(=O)[C@@H](N)CSSC[C@@H](C(=O)N2CCC[C@H]2C(=O)N[C@@H](CC(C)C)C(=O)NCC(N)=O)NC(=O)[C@H](CC(N)=O)NC(=O)[C@H](CCC(N)=O)NC1=O [OXT, oxytocin]
- proliferation (BrdU incorporation) of mouse LSK cells [3]: induced proliferation; also recorded: stimulated LSK proliferation
- proliferation (BrdU) of human CD34+ cells / HSPCs (human CD34^+ cells): responded to AVP and OXT in much the same way as mouse LSK cells did
- granulocyte macrophage-colony forming unit (GM-CFU) numbers [1, 4]: increased only GM-CFU numbers
- ERK phosphorylation (Human BMSCs): induced ERK phosphorylation
- intracellular calcium (Human BMSCs): increase in intracellular Ca^2+ concentrations

Molecule: NC[C@H](O)c1ccc(O)c(O)c1 [noradrenaline]
- erythroid-colony forming unit (E-CFU) numbers [1, 4]: significantly increased

Molecule: [Phe2, Ile3, Orn8] Vasopressin [AVPR1A agonist]
- intracellular calcium levels [2]: did not respond

Molecule: dCha^4AVP
- colony formation ([1]; 10^−8M): stimulated colony formation
- intracellular calcium levels [2]: increased intra-cellular Ca^2+ concentrations

Molecule: d[Leu4, Lys8]-VP [dLeu^4Lys^8-VP]
- recovery times (C57BL6 male mice): significantly improved recovery times

Molecule: desGlyAVP
- proliferation (BrdU incorporation) of mouse LSK cells [3]: did not

B1: Dkk1: dickkopf related protein 1, Wnt pathway inhibitor (protein, UniProt O94907 32-266, looked up)
Dickkopf-related protein 1: TLNSVLNSNAIKNLPPPLGGAAGHPGSAVSAAPGILYPGGNKYQTIDNYQPYPCAEDEECGTDEYCASPTRGGDAGVQICLACRKRRKRCMRHAMCCPGNYCKNGICVSSDQNHFRGEIEETITESFGNDHSTLDGYSRRTTLSSKMYHTKGQEGSVCLRSSDCASGLCCARHFWSKICKPVLKEGQVCTKHRRKGSHGLEIFQRCYCGEGLSCRIQKDHHQASNSSRLHTCQRH
- effect of pathway inhibitor on CFU increase elicited by AVP ([1]; Dkk1 200 ng/ml, HIMO 10^−8 M): blocked the increase in GM-CFU numbers
- effect of pathway inhibitor on CFU increase elicited by AVP ([1]; Dkk1 200 ng/ml, HIMO 10^−8 M, listed as DKK-1): did block
- effect of pathway inhibitor on CFU increase elicited by AVPR1B agonist ([1]; Dkk1 200 ng/ml, HIMO 10^−8 M): blocked the increase in GM-CFU numbers
- effect of pathway inhibitor on GM-CFU increase induced by OXT ([1]; Dkk1 200 ng/ml, HIMO 10^−8 M): did not alter

Reference: US10172911B2, “Methods of modulating erythropoiesis with arginine vasopressin receptor 1B molecules” (The United States of America, as represented by the …, priority 2013, dated 2019)
